The values that follow are results of earlier work, collected in patent publication US20120087963A1, “DISINFECTANT COMPOSITION COMPRISING A BIGUANIDE COMPOUND” (BIO TECHNICS LIMITED, priority 2009, published 2012).

The series relates to bacteria. The note with it: typical, of the order of.

Consider polyaminopropyl biguanide [PAPB], for which the Bactericidal concentration was roughly 10 mg/L.
